One may read the IC50 as the point on the concentration scale where inhibition reaches its midpoint.

Drawing on patent publication US20230064809A1, “SUBSTITUTED AMINOQUINOLONES AS DGKALPHA INHIBITORS FOR IMMUNE ACTIVATION” (Bayer Aktiengesellschaft, priority 2019, published 2023), this text covers IC50 for 26 molecules.

The assay concerns the target DGKα (Homo sapiens, UniProt P23743). Kind of assay: Human DGKα kinase activity inhibition assay (ADP-Glo). Type of assay: biochemical. On the set-up: made in house; host or cells: Sf9 insect cells, baculovirus. To be noted: in vitro, C-terminally FLAG-tagged recombinant full-length human DGKα, 1,2-dioleoyl-sn-glycerol substrate, ADP-Glo readout. The method, then: Human DGKα Kinase Activity Inhibition Assay. Human DGKα inhibitory activity of compounds of the present invention was quantified employing the human DGKα kinase activity assay as described in the following paragraphs. In essence, the enzyme activity was measured by quantification of the adenosine-di-phosphate (ADP) generated as a co-product of the enzyme reaction via the “ADP-Glo™ Kinase Assay” kit from the company Promega. This detection system works as follows: In a first step the ATP not consumed in the kinase reaction is quantitatively converted to […] (“ADP-Glo-reagent”), then the adenylate cyclase is stopped and the ADP generated in the kinase reaction converted to ATP, which subsequently generates in a luciferase-based reaction a glow-luminescence signal (“Kinase Detection Reagent”). C-terminally FLAG-tagged, recombinant full-length human DGKα (expressed in baculovirus infected insect cells, purified using anti-Flag pulldown and size exclusion chromatography as described below, DGKa_hu_1) was used as enzyme. As substrate for the kinase 1,2-dioleoyl-sn-glycerol, reconstituted in octyl-β-D-glucopyranoside micelles, was used. For the preparation of the micelles, 1 volume of a 16.1 mM solution of 1,2-dioleoyl-sn-glycerol (Avanti, Cat. #08001-25G) in chloroform was slowly evaporated using a nitrogen stream. Subsequently, 22.55 volumes of a 510 mM solution of octyl-β-D-glucopyranoside (Sigma-Aldrich, Cat. #08001-10G) in 50 mM MOPS buffer (pH 7.4) were added, and the mixture was sonicated in an ultrasonic bath for 20 s. Then 35 volumes of 50 mM MOPS buffer (pH 7.4) were added to yield a solution of 0.28 mM 1,2 dioleoyl-sn-glycerol and 200 mM octyl-β-D-glucopyranoside, which was aliquoted, flash-frozen in liquid nitrogen, and stored at −20° C. until use. For each experiment, a fresh aliquot was quickly thawed and diluted 24-fold with aqueous assay buffer (described below) containing 95.7 μM adenosine triphosphate (Promega) to yield a 1.67-fold concentrated substrate solution. For the assay 50 nl of a 100-fold concentrated solution of the test compound in dimethyl sulfoxide (DMSO, Sigma) was pipetted into either a white 1536-well or a white low-volume 384-well microtiter plate (both Greiner Bio-One, Frickenhausen, Germany). […] The concentration of DGK a was adjusted depending of the activity of the enzyme lot and was chosen appropriate to have the assay in the linear range, a typical concentration is about 0.1 nM. The reaction was stopped by the addition of 2.5 μl of “ADP-Glo-reagent” (1 to 1.5 diluted with water) and the resulting mixture was incubated at 22° C. for 1 h to convert the ATP no t consumed in the kinase reaction completely to […]. […] The amount of emitted light was taken as a measure for the amount of ADP generated and thereby for the activity of the DGKα.
In general terms: ADP-Glo first removes unused ATP, then detects ADP through luciferase.

Chain of DGKα (P23743 with tags, fused parts or gaps): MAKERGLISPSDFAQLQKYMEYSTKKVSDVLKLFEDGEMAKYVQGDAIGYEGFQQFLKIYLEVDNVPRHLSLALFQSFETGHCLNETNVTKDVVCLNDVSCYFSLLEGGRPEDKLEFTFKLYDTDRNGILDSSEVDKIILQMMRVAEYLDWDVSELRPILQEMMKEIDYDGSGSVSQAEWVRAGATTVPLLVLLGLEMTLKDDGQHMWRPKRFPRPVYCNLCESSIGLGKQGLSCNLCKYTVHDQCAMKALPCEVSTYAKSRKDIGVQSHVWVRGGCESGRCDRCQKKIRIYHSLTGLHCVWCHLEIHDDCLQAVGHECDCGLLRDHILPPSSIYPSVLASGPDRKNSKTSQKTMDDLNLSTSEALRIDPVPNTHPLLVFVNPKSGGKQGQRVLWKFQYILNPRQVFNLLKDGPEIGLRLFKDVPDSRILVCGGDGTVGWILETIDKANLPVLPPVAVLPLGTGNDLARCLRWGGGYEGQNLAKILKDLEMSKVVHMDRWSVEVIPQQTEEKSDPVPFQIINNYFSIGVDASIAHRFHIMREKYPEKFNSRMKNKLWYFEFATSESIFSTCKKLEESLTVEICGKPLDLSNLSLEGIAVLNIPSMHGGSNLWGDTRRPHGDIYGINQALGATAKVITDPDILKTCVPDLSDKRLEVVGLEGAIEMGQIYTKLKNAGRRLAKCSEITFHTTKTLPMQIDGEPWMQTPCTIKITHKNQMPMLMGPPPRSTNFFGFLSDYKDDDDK

With `Cn1c(=O)c(C#N)c(N2CCC3(CCN(c4ccccc4)C3)CC2)c2ccccc21` [Example 1, 1-methyl-2-oxo-4-(2-phenyl-2,8-diazaspiro[4.5]decan-8-yl)-1,2-dihydroquinoline-3-carbonitrile], the IC50 is 0.034 µM.

As for `Cn1c(=O)c(C#N)c(N2CCC3(CCN(c4ccc(F)cc4)C3)CC2)c2ccccc21` [Example 2, 4-[2-(4-fluorophenyl)-2,8-diazaspiro[4.5]decan-8-yl]-1-methyl-2-oxo-1,2-dihydroquinoline-3-carbonitrile], the IC50 amounted to 0.038 µM.

`Cn1c(=O)c(C#N)c(N2CCC3(CCN(c4ccc(F)c(F)c4)C3)CC2)c2ccccc21` [Example 3, 4-[2-(3,4-difluorophenyl)-2,8-diazaspiro[4.5]decan-8-yl]-1-methyl-2-oxo-1,2-dihydro-quinoline-3-carbonitrile]: the IC50 stood at 0.039 µM.

On to `Cn1c(=O)c(C#N)c(N2CCC3(CN(c4ccc(F)cc4)C3)C2)c2ccccc21` [Example 4, 4-[2-(4-fluorophenyl)-2,6-diazaspiro[3.4]octan-6-yl]-1-methyl-2-oxo-1,2-dihydroquinoline-3-carbonitrile], for which the IC50 came to 0.035 µM.

Consider `COc1ccc(N2CC3(CCN(c4c(C#N)c(=O)n(C)c5ccccc45)C3)C2)cc1` [Example 5, 4-[2-(4-methoxyphenyl)-2,6-diazaspiro[3.4]octan-6-yl]-1-methyl-2-oxo-1,2-dihydro-quinoline-3-carbonitrile], for which the IC50 stood at 0.103 µM.

With `Cn1c(=O)c(C#N)c(N2CCC3(CN(c4ccc(Cl)cc4)C3)C2)c2ccccc21` [Example 6, 4-[2-(4-chlorophenyl)-2,6-diazaspiro[3.4]octan-6-yl]-1-methyl-2-oxo-1,2-dihydroquinoline-3-carbonitrile], the IC50 is 0.01 µM.

For the molecule `Cn1c(=O)c(C#N)c(N2CC3(CCN(c4ccc(F)cc4)C3)C2)c2ccccc21` [Example 7, 4-[6-(4-fluorophenyl)-2,6-diazaspiro[3.4]octan-2-yl]-1-methyl-2-oxo-1,2-dihydroquinoline-3-carbonitrile], the IC50 was 0.063 µM.

On to `Cn1c(=O)c(C#N)c(N2CCC3(CCN(c4ccc(OC(F)(F)F)cc4)C3)CC2)c2ccccc21` [Example 8, 1-methyl-2-oxo-4-{2-[4-(trifluoromethoxy)phenyl]-2,8-diazaspiro[4.5]decan-8-yl}-1,2-dihydroquinoline-3-carbonitrile], for which the IC50 was determined as 0.017 µM.

As to `COc1cccc(N2CCC3(CCN(c4c(C#N)c(=O)n(C)c5ccccc45)CC3)C2)c1` [Example 9, 4-[2-(3-methoxyphenyl)-2,8-diazaspiro[4.5]decan-8-yl]-1-methyl-2-oxo-1,2-dihydro-quinoline-3-carbonitrile], the IC50 came out at 0.011 µM.

In the case of `COc1ccccc1N1CCC2(CCN(c3c(C#N)c(=O)n(C)c4ccccc34)CC2)C1` [Example 10, 4-[2-(2-methoxyphenyl)-2,8-diazaspiro[4.5]decan-8-yl]-1-methyl-2-oxo-1,2-dihydro-quinoline-3-carbonitrile], the IC50 came to 0.018 µM.

Consider `CN(C)c1cccc(N2CCC3(CCN(c4c(C#N)c(=O)n(C)c5ccccc45)CC3)C2)c1` [Example 11, 4-{2-[3-(dimethylamino)phenyl]-2,8-diazaspiro[4.5]decan-8-yl}-1-methyl-2-oxo-1,2-dihydroquinoline-3-carbonitrile], for which the IC50 is 0.028 µM.

As for `Cn1c(=O)c(C#N)c(N2CCC3(CCN(c4cccc(OC(F)(F)F)c4)C3)CC2)c2ccccc21` [Example 12, 1-methyl-2-oxo-4-{2-[3-(trifluoromethoxy)phenyl]-2,8-diazaspiro[4.5]decan-8-yl}-1,2-dihydroquinoline-3-carbonitrile], the IC50 is 0.05 µM.

Take `CN(C)c1ccccc1N1CCC2(CCN(c3c(C#N)c(=O)n(C)c4ccccc34)CC2)C1` [Example 13, 4-{2-[2-(dimethylamino)phenyl]-2,8-diazaspiro[4.5]decan-8-yl}-1-methyl-2-oxo-1,2-dihydroquinoline-3-carbonitrile]: the IC50 was found to be 0.051 µM.

For `Cn1c(=O)c(C#N)c(N2CCC3(CCN(c4ccccc4OC(F)(F)F)C3)CC2)c2ccccc21` [Example 14, 1-methyl-2-oxo-4-{2-[2-(trifluoromethoxy)phenyl]-2,8-diazaspiro[4.5]decan-8-yl}-1,2-dihydroquinoline-3-carbonitrile], the IC50 stood at 0.061 µM.

As to `COc1ccc(N2CCC3(CCN(c4c(C#N)c(=O)n(C)c5ccccc45)CC3)C2)cc1` [Example 15, 4-[2-(4-methoxyphenyl)-2,8-diazaspiro[4.5]decan-8-yl]-1-methyl-2-oxo-1,2-dihydro-quinoline-3-carbonitrile], the IC50 was 0.091 µM.

On to `Cn1c(=O)c(C#N)c(N2CC3(CCCN(c4ccc(F)cc4)C3)C2)c2ccccc21` [Example 16, 4-[6-(4-fluorophenyl)-2,6-diazaspiro[3.5]nonan-2-yl]-1-methyl-2-oxo-1,2-dihydro-quinoline-3-carbonitrile], for which the IC50 is 0.015 µM.

Turning to `Cn1c(=O)c(C#N)c(N2CCC3(CN(c4ccc(OC(F)(F)F)cc4)C3)C2)c2ccccc21` [Example 17, 1-methyl-2-oxo-4-{2-[4-(trifluoromethoxy)phenyl]-2,6-diazaspiro[3.4]octan-6-yl}-1,2-dihydroquinoline-3-carbonitrile], the IC50 came to 0.0035 µM.

Take `Cn1c(=O)c(C#N)c(N2CC3(CCN(c4ccc(OC(F)(F)F)cc4)C3)C2)c2ccccc21` [Example 18, 1-methyl-2-oxo-4-{6-[4-(trifluoromethoxy)phenyl]-2,6-diazaspiro[3.4]octan-2-yl}-1,2-dihydroquinoline-3-carbonitrile]: the IC50 worked out at 0.019 µM.

With `Cn1c(=O)c(C#N)c(N2CCC3(CCN(c4ccc(OC(F)(F)F)cc4)C3)C2)c2ccccc21` (centres unmarked) [Example 19, 1-methyl-2-oxo-4-{7-[4-(trifluoromethoxy)phenyl]-2,7-diazaspiro[4.4]nonan-2-yl}-1,2-dihydroquinoline-3-carbonitrile], the IC50 worked out at 0.122 µM.

As for `COc1cccc(N2CC3(CCN(c4c(C#N)c(=O)n(C)c5ccccc45)C3)C2)c1` [Example 20, 4-[2-(3-methoxyphenyl)-2,6-diazaspiro[3.4]octan-6-yl]-1-methyl-2-oxo-1,2-dihydroquinoline-3-carbonitrile], the IC50 was 0.155 µM.

As for `CN(C)c1ccc(N2CC3(CCN(c4c(C#N)c(=O)n(C)c5ccccc45)C3)C2)cc1` [Example 21, 4-{2-[4-(dimethylamino)phenyl]-2,6-diazaspiro[3.4]octan-6-yl}-1-methyl-2-oxo-1,2-dihydroquinoline-3-carbonitrile], the IC50 stood at 0.163 µM.

As for `Cn1c(=O)c(C#N)c(N2CCC3(CN(c4ccc(N5CCCC5=O)cc4)C3)C2)c2ccccc21` [Example 22, 1-methyl-2-oxo-4-{2-[4-(2-oxopyrrolidin-1-yl)phenyl]-2,6-diazaspiro[3.4]octan-6-yl}-1,2-dihydroquinoline-3-carbonitrile], the IC50 stood at 0.477 µM.

`Cn1c(=O)c(C#N)c(N2CCC3(CCN(c4ccc(F)cc4)C3)C2)c2ccccc21` (centres unmarked) [Example 23, 4-[7-(4-fluorophenyl)-2,7-diazaspiro[4.4]nonan-2-yl]-1-methyl-2-oxo-1,2-dihydro-quinoline-3-carbonitrile]: the IC50 is 0.532 µM.

With `Cn1c(=O)c(C#N)c(N2CCC3(CN(c4ccc(N5CCOCC5)cc4)C3)C2)c2ccccc21` [Example 24, 1-methyl-4-{2-[4-(morpholin-4-yl)phenyl]-2,6-diazaspiro[3.4]octan-6-yl}-2-oxo-1,2-dihydroquinoline-3-carbonitrile], the IC50 was 1.7 µM.

On to `Cn1c(=O)c(C(N)=O)c(N2CCC3(CCN(c4ccc(OC(F)(F)F)cc4)C3)CC2)c2ccccc21` [Example 25, 1-methyl-2-oxo-4-{2-[4-(trifluoromethoxy)phenyl]-2,8-diazaspiro[4.5]decan-8-yl}-1,2-dihydroquinoline-3-carboxamide], for which the IC50 amounted to 0.003 µM.

Regarding `Cn1c(=O)c(C(N)=O)c(N2CCC3(CN(c4ccc(Cl)cc4)C3)C2)c2ccccc21` [Example 26, 4-[2-(4-chlorophenyl)-2,6-diazaspiro[3.4]octan-6-yl]-1-methyl-2-oxo-1,2-dihydroquinoline-3-carboxamide], the IC50 was 0.042 µM.
